# Like-named read-outs stand apart in the source and are kept apart here.
# Columns and labels:
# [1] = test system: APAP-induced liver injury in mg53−/− mice; experiment: APAP-induced hepatotoxicity in mg53−/− mice; assay type: in vivo
# Protocol: We determined, however, that the amount of endogenous MG53 provided by the body is on its own insufficient to overcome DILI. Pilot studies were conducted to explore the dose dependence of APAP-induced hepatotoxicity in mice. […] Therefore, the 350 mg/kg dose was used for the comparative studies with mg53−/− mice and their littermate wild-type controls.
# We also determined whether exogenous MG53 administered to a subject might be sufficient to prevent or reduce the severity of DILI.
# mg53−/− mice and their wild type littermates were generated, bred and genotyped as previously described (Cai, C., et al. MG53 nucleates assembly of cell membrane repair machinery. Nature cell biology 11, 56-64 (2009); Cai, C., et al. MG53 regulates membrane budding and exocytosis in muscle cells. The Journal of biological chemistry 284, 3314-3322 (2009); Cai, C., et al. Membrane repair defects in muscular dystrophy are linked to altered interaction between MG53, caveolin-3, and dysferlin. The Journal of biological chemistry 284, 15894-15902 (2009)), the entire disclosures of which are hereby incorporated by reference. To ensure data reproducibility, mouse tail samples are retained and cataloged for secondary future validation, if necessary. The mg53−/− mouse line has been previously validated.
# [2] = test system: CCl4 chemical-induced liver injury in C57BL/6J mice; experiment: CCl4-induced liver injury in mice; assay type: in vivo; settings: CCl4 2 ml/kg, rhMG53 i.p. after injury; FIGS. 12, 13
# Protocol: (§1) We also determined the efficacy of exogenous MG53 to protection against DILI caused by other chemicals. MG53 provided protective benefits when evaluated against carbon tetrachloride (CCl4) and thioacetamide (TAA). C57BL/6J mice were injected with CCl4 or TAA to cause chemical-induced liver injury and subsequently treated with MG53 via i.p. administration (Example 7). Liver tissue was biopsied and examined under microscope. The extent of necrotic tissue formation and the level of AST expression were quantified.
# APAP-treated hepatocytes = experiment: Membrane integrity of APAP-treated hepatocytes (LDH release, fluorescent dye entry); assay type: cell-based; settings: rhMG53 added to APAP-treated hepatocytes
# From the text: (§2) We unexpectedly discovered that exogenous MG53 added to the circulatory system (blood) provides protection against hepatic tissue injury and provides therapeutic treatment of injured hepatic tissue. Addition of rhMG53 to APAP-treated hepatocytes improves membrane integrity and increases survival of the cells as evidenced by the reduced release of LDH and entry of fluorescent dyes. […] MG53 reduces MLKL phosphorylation and membrane translocation, thus leading to the […] of MLKL-mediated disintegration of the hepatocellular membrane. Through biochemical and molecular studies, we identified RIPK3 as an E3-ligase substrate for MG53. The systemically administered rhMG53 enters the injured hepatocytes to target polyubiquitination of RIPK3 for proteasome-dependent protein degradation. In this way, the intracellular action of MG53 adds defensive value to hepatocellular protection by reducing stress-induced activation of the RIPK3-MLKL death signaling.
# HpeG2 were seeded in 35 mm glass bottom dishes at a density of 1×10^4 cells/cm^2 and incubated over overnight. […] After rinsing with Tyrode's solution, the cells were mixed with FM1-43 dye. […] Dye entry into the cells was monitored continuously with fluorescence confocal microscope (Eclipse Ti-U, Nikon Corporation, Tokyo, Japan) immediately after mixing with the dye. […]
# mouse hepatocytes = experiment: MTT assay, APAP-injured mouse hepatocytes; assay type: cell-based; settings: rhMG53 10 or 50 μg/ml, APAP 10 mM, 24 h, FIG. 14B
# Protocol: (§3) The data herein can be extrapolated to develop suitable protective doses for humans and large animals.
# (§4) Primary hepatocytes were isolated from adult mice. To isolate primary murine hepatocytes, anesthetized and heparinized mice were subjected to a midline laparotomy and cannulation of the portal vein followed by liver perfusion with an EGTA-chelating perfusion buffer (190 mg EGTA, 900 mg glucose, 10 mL of 1 M HEPES, 400 mg KCl, 305 mg Na2HPO4.12H2O, 8 g NaCl, 88 mg Na2HPO4.2H2O, and 350 mg NaHCO3 into a final volume of 1 L of sterile dH2O). After perfusion with 0.4% collagenase buffer (560 mg CaCl2).2H2O, 10 mL of 1 M HEPES, 400 mg KCl, 305 mg Na2HPO4.12H2O, 8 g NaCl, 88 mg Na2HPO4. 2H2O, 350 mg NaHCO3, and 400 mg collagenase IV into a final volume of 1 L of sterile dH2O), livers were minced, and cells were dispersed in culture medium; hepatocytes and nonparenchymal cells were separated using low-speed centrifugation and 40% Percoll density gradient centrifugation.
# A hepatoma-derived HepG2 cell line was purchased from the China Cell Line Bank (Beijing China). Cells were cultured in DMEM containing 100 U/ml penicillin, 100 U/ml streptomycin, 10% FBS, and 3 mM glutamine at 37° C. with 95% air, and 5% CO2. […] Subsequently, the MTT solution was discarded, DMSO was added to each well, and absorbance was measured.
# RIPK3 = biological target: T1, RIPK3 (Homo sapiens, UniProt Q9Y572); experiment: Biochemical and molecular studies of E3-ligase substrate
# T1 construct: endogenous in cells; host or cells: HepG2
# From the text: as §2
# Cell lysates (800 μg protein/mL supernatant) were incubated with anti-MG53 or anti-MLKL, anti-RIPK3 antibody (1 μg/mL) for 1 hour, and protein-G agarose at 4° C. for 12 hours. The immunoprecipitates were suspended in Laemmli buffer, boiled for 10 minutes, divided into 2 aliquots, electrophoresed, transferred, and subjected to immunoblotting with the anti-MLKL, anti-RIPK3, and anti-MG53 antibodies. […]
# [3] = test system: primary hepatocytes from wild-type and dysferlin−/− mice; experiment: Hypoxia/reoxygenation (H/R) injury of primary hepatocytes; assay type: cell-based; settings: for cell viability of hepatocytes: 3 hours hypoxia, 3 hours reoxygenation, FIGS. 10A, 10B
# Protocol: We also determined that the protective effect of MG53 could be extended beyond DILI to hypoxia/reoxygenation-induced (H/R-induced) liver injury. We isolated primary hepatocytes from wild-type and dysferlin−/− mice. […] With the addition of 10 μg/ml or 50 μg/ml of rhMG53, increased cell viability of hepatocytes was observed.
# as §4
# Isolated mouse hepatocytes (2×10^5/well) were cultured on 24-well collagen-coated plates in William's Medium E (Gibco, Life Technologies, Foster City, Calif.) with 10% FBS at 37° C. with 5% CO2 for 4 hours. To assess the purity of primary hepatocytes, cells were subjected to BD Cytofix/Cytoperm and Fc Block (BD Biosciences) according to manufacturer's instructions. Hepatocytes were then stained with primary antibody against albumin (1 ug/1×10^6 cells; Novus Biologicals) and secondary AlexaFluor 594 antibody (1 ug/1×10^6 cells; Cellsignal) and analyzed by flow cytometry using a BD LSRFortessa (BD Bioscience)).
# [4] = test system: APAP-induced hepatic injury in C57BL/6J mice; settings: for therapeutic effect as determined by the survival rate: FIG. 8
# HepG2 hepatocytes = experiment: MTT assay, APAP-injured HepG2; assay type: cell-based; settings: rhMG53 10 or 50 μg/ml, APAP 10 mM, 24 h, FIG. 14A
# Protocol: as §3
# A hepatoma-derived HepG2 cell line was purchased from the China Cell Line Bank (Beijing China). Cells were cultured in DMEM containing 100 U/ml penicillin, 100 U/ml streptomycin, 10% FBS, and 3 mM glutamine at 37° C. with 95% air, and 5% CO2. […] Then, an MTT solution (5 mg/ml) was added to the cells, followed by incubation for another 4 h. Subsequently, the MTT solution was discarded, DMSO was added to each well, and absorbance was measured.
# HepG2 cells = experiment: Propidium iodide staining of necrotic cell death after APAP; assay type: cell-based; settings: rhMG53 and APAP vs APAP only; FIG. 11
# From the text: We also determined that exogenous MG53 can reduce the extent of hepatic cell death following injury of hepatic tissue.
# MLKL = MLKL phosphorylation and membrane translocation; assay type: cell-based
# From the text: as §2, with “In this way, the intracellular action of MG53 adds defensive value to hepatocellular protection by reducing stress-induced activation of the RIPK3-MLKL death signaling.” left out
# Crude extracts from dissected regions of the mouse liver were washed twice with ice-cold phosphate-buffered saline (PBS) and lysed in radio immunoprecipitation assay buffer (10 mM tris-HCl (pH 7.2), 150 mM NaCl, 1% NP-40, 0.5% SDS, and 0.5% deoxycholate), supplemented with a cocktail of protease inhibitors (Sigma) and phosphatase inhibitors (Thermo Scientific). […] Membranes were washed 3 times with TBS-T. Bound complexes were detected using the Odyssey Infrared Imaging System. Images were analyzed using the Odyssey Application Software to obtain the integrated intensities. […]
# [5] = test system: TAA chemical-induced liver injury in C57BL/6J mice; experiment: TAA-induced liver injury in mice; assay type: in vivo; settings: TAA 200 mg/kg, rhMG53 i.p. after injury; FIGS. 12, 13
# Protocol: as §1
# [6] = test system: hepatocytes of C57BL/6J mice; experiment: Confocal imaging of fluorescent-labelled rhMG53 transfer from bloodstream to liver; assay type: in vivo; settings: FIG. 3
# From the text: We determined that MG53 transfers from the circulatory system to the liver upon occurrence of DILI. We used a mouse model of acetaminophen-induced (APAP-induced) hepatic injury to determine whether MG53 can transfer from circulation to the liver to target the injured hepatocytes.
# T1 sequence (Q9Y572 whole entry): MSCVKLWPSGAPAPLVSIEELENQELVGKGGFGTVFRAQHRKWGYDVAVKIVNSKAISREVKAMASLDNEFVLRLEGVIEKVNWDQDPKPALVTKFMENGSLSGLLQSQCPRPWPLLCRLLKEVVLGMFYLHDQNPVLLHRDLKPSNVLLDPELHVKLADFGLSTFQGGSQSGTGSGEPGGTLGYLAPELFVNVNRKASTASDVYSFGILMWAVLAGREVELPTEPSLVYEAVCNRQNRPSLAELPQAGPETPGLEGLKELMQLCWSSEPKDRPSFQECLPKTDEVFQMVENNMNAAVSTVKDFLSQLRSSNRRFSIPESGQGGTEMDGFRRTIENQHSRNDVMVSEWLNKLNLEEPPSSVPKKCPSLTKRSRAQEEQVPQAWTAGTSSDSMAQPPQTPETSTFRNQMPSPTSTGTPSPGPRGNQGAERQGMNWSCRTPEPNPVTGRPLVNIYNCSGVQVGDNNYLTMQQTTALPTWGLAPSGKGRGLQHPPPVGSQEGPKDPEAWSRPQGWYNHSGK
substance,measurement,setting,value
"rhMG53: recombinant human MG53 protein (mitsugumin 53, TRIM72) obtained by E. coli fermentation",necrosis of hepatic tissue,[1]; exogenous MG53 administered to mg53−/− mice with injured liver tissue,substantial reduction
same,serum levels of AST,"[1]; mg53−/− mice receiving rhMG53 treatment, APAP 350 mg/kg",reduced
same,healing of liver tissue (immunofluorescent confocal imaging),"[1]; mg53−/− mice, exogenous MG53 before or after chemical-induced liver injury",improved healing
same,survival of the mg53−/− mice,"[1]; rhMG53 1 mg/kg i.p. prior to APAP 350 mg/kg, FIG. 4",improved
same,"liver tissue injury (necrotic tissue formation, AST level)",[2],protective activity
same,entry of fluorescent dyes,APAP-treated hepatocytes,reduced
same,release of LDH,APAP-treated hepatocytes,reduced
same,protective activity against APAP-induced injury (viability),mouse hepatocytes,dose-dependent protective activity
same,E3-ligase substrate identified,RIPK3,RIPK3
same,cell viability of hepatocytes,[3]; 10 μg/ml,increased
same,cell viability of hepatocytes,[3]; 50 μg/ml,increased
same,AST in the culture medium,[3]; H/R-treated wild type hepatocytes,dose-dependent effect of rhMG53 in the reduction
same,necrotic injury to the liver tissue,[4]; rhMG53 1 mg/kg 12 hours after APAP 300 mg/kg i.p.,reduced
same,serum levels of AST,"[4]; rhMG53 1 mg/kg 12 hours after APAP 300 mg/kg i.p., FIG. 9",reduction
same,serum levels of AST,"[4]; rhMG53 1.0 mg/kg i.p. 30 min before 350 mg/kg APAP, FIG. 6",reduced
same,necrotic injuries to the mouse liver,"[4]; rhMG53 1.0 mg/kg i.p. 30 min before 350 mg/kg APAP, FIG. 7A, 7B",ameliorated
same,survival rate,"[4]; rhMG53 1.0 mg/kg i.p. 30 minutes before 500 mg/kg APAP, FIG. 5",increased
same,therapeutic effect as determined by the survival rate,[4]; rhMG53 1 mg/kg i.p. 1 h after APAP 500 mg/kg,most apparent
same,therapeutic effect as determined by the survival rate,[4]; rhMG53 1 mg/kg i.p. 6 hours after APAP 500 mg/kg,still evident
same,healing of liver tissue (immunofluorescent confocal imaging),"[4]; wt mice, exogenous MG53 before or after chemical-induced liver injury",improved healing
same,protective activity against APAP-induced injury (viability),HepG2 hepatocytes,dose-dependent protective activity
same,necrotic cell death (PI staining),HepG2 cells,significant reduction
same,MLKL phosphorylation and membrane translocation,MLKL,reduces
same,"liver tissue injury (necrotic tissue formation, AST level)",[5],protective activity
Alexa647-rhMG53: rhMG53 protein conjugated with an Alexa647 fluorescent probe,fluorescent signal in hepatocytes,"[6]; 1 mg/kg intravenously prior to APAP 350 mg/kg i.p., injured hepatocytes",clearly visible
same,fluorescent signal in liver,"[6]; 1 mg/kg intravenously, untreated mouse liver (no APAP)",no Alexa647-rhMG53 signal was visible

# — patent US20220105152A1, “Composition for and Method of Treating Hepatic Tissue Injury” (OHIO STATE INNOVATION FOUNDATION, priority 2019, published 2022)
